Results as given in ChEMBL document CHEMBL3132845, “Design and discovery of 4-anilinoquinazoline ureas as multikinase inhibitors targeting BRAF, VEGFR-2 and EGFR” (Medchemcomm, 2013).

How the values were obtained:
[1] = target: T1, Serine/threonine-protein kinase B-raf (Homo sapiens, UniProt P15056); experiment: Inhibition of BRAF (unknown origin) after 1 hr by LanthaScreen assay
[2] = target: Epidermal growth factor receptor (Homo sapiens, UniProt P00533); experiment: Inhibition of EGFR (unknown origin) after 1 hr by Caliper mobility shift assay
[3] = target: T2, Vascular endothelial growth factor receptor 2 (Homo sapiens, UniProt P35968); experiment: Inhibition of VEGFR2 (unknown origin) after 1 hr by Caliper mobility shift assay
[4] = target: Serine/threonine-protein kinase B-raf (Homo sapiens, UniProt P15056, V600E); experiment: Inhibition of BRAF V600E mutant (unknown origin) after 1 hr by LanthaScreen assay
[5] = target: T2, Vascular endothelial growth factor receptor 2; experiment: Ratio of sorafenib IC50 to compound IC50 for VEGFR2 (unknown origin) after 1 hr by Caliper mobility shift assay
[6] = target: T1, Serine/threonine-protein kinase B-raf; experiment: Ratio of sorafenib IC50 to compound IC50 for BRAF (unknown origin) after 1 hr by LanthaScreen assay

T2 sequence (P35968 whole entry): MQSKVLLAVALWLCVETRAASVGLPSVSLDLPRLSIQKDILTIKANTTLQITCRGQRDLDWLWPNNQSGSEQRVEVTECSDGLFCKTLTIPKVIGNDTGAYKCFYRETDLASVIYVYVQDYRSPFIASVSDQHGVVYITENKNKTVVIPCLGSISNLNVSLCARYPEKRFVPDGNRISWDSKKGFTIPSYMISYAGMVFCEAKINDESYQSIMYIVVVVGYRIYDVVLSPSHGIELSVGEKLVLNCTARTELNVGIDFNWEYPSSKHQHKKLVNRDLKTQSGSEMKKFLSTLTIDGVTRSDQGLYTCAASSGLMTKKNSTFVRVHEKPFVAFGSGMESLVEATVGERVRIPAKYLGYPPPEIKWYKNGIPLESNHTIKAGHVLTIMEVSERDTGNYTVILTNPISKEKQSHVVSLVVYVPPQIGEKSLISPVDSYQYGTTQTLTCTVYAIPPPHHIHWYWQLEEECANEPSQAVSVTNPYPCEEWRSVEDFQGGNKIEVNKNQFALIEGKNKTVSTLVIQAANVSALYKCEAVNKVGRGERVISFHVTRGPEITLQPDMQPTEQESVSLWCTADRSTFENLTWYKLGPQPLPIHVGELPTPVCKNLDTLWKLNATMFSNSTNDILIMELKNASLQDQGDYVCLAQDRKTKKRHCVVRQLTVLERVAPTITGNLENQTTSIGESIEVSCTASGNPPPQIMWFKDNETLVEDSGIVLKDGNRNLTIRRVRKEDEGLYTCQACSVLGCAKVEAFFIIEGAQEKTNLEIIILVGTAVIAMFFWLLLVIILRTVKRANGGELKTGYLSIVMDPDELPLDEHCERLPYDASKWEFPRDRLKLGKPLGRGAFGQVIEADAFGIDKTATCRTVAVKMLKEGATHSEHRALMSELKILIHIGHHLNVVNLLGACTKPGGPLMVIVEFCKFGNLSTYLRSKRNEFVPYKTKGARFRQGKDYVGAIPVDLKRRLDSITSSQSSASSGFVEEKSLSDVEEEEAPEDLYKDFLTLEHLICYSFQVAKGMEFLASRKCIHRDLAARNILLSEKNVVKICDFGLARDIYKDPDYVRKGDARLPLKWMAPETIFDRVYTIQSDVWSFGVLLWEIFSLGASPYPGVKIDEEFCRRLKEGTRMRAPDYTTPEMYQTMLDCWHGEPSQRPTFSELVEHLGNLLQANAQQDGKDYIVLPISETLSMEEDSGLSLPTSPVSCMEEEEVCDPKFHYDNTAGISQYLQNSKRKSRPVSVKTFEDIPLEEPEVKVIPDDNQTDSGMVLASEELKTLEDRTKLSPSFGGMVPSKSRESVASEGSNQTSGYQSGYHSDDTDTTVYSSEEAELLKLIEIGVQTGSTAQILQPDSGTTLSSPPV
Sequence of Epidermal growth factor receptor (P00533 whole entry): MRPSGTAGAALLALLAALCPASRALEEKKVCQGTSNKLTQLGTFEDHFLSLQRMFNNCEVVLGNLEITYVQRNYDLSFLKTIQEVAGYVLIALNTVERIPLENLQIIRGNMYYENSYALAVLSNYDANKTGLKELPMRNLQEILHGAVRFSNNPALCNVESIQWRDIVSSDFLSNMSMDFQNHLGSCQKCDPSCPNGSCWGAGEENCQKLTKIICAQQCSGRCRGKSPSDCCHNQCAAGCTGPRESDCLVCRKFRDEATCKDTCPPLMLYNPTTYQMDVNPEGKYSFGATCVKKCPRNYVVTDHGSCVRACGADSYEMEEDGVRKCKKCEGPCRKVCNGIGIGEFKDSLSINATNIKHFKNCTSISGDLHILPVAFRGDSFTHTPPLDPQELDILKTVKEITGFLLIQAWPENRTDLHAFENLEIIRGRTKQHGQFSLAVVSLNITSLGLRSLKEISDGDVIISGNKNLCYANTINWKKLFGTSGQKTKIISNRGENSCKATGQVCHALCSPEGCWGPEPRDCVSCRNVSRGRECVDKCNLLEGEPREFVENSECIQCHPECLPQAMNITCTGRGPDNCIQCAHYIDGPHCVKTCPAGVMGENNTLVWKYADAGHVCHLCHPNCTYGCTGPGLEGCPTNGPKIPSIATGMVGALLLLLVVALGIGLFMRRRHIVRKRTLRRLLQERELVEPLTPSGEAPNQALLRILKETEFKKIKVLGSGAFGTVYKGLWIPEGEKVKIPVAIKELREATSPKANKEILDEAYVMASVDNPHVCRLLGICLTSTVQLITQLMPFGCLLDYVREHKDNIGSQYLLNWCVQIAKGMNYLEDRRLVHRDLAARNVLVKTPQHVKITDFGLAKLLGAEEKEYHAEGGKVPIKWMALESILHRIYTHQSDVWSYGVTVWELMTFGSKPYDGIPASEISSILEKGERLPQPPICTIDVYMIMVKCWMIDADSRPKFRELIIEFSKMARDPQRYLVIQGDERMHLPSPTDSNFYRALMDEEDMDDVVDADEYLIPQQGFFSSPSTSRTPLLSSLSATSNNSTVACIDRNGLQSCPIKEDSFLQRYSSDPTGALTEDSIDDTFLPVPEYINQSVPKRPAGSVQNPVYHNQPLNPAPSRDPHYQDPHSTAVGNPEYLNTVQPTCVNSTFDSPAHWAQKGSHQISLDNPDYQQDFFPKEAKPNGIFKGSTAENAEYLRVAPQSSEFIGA
T1 sequence (P15056 whole entry): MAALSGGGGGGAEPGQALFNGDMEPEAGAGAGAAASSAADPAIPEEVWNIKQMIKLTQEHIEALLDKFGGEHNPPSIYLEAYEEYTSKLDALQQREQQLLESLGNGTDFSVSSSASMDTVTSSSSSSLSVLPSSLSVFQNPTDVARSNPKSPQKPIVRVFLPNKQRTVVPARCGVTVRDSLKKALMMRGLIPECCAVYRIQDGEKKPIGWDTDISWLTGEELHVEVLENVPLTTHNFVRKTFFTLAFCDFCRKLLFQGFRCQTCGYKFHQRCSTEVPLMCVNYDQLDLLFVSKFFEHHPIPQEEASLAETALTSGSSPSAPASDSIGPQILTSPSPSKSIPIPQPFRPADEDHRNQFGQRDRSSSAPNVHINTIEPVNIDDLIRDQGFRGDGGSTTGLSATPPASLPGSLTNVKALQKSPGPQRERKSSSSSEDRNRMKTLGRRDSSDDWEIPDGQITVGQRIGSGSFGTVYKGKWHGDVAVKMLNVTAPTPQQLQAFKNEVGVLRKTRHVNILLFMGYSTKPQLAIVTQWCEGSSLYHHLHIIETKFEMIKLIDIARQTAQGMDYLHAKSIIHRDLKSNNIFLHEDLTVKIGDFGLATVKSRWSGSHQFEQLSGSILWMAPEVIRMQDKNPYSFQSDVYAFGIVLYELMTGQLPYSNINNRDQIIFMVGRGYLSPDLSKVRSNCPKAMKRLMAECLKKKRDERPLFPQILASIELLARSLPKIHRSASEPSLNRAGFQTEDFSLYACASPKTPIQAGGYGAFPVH
Sequence of Serine/threonine-protein kinase B-raf (Homo sapiens, UniProt P15056, V600E) (P15056 2-766 V600E limits assumed): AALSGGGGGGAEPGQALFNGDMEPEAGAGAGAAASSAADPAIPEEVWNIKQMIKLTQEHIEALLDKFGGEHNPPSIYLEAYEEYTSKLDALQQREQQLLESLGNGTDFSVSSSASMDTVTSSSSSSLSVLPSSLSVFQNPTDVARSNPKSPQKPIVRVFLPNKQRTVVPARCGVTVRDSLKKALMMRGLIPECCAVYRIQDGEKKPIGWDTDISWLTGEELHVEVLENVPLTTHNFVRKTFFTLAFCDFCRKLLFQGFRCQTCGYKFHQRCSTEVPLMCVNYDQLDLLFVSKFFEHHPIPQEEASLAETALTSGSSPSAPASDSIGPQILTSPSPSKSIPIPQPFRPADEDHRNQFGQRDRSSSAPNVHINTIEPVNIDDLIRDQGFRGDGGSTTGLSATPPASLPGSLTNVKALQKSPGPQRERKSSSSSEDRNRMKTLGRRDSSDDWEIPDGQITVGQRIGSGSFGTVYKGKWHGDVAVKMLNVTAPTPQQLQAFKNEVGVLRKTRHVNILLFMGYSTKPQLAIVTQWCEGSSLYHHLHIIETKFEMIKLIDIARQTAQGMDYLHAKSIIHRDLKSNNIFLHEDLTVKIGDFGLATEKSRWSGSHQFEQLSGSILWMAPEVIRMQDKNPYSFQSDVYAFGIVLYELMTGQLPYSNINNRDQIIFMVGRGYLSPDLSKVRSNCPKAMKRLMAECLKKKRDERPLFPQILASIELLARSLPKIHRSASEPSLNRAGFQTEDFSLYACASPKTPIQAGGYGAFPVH

Row | SMILES | IC50 [1] | IC50 [2] | IC50 [3] | IC50 [4] | Ratio IC50 [5] | Ratio IC50 [6]
1 | COc1cc2ncnc(Nc3cccc(NC(=O)Nc4cccc(C)c4)c3)c2cc1OCCCN1CCOCC1 | 119 nM | 2350 nM | 8570 nM | 54 nM | – | –
2 | COc1cc2ncnc(Nc3ccc(NC(=O)Nc4ccc(Cl)c(C(F)(F)F)c4)cc3)c2cc1OCCCN1CCOCC1 | 539 nM | 285 nM | 17 nM | 371 nM | 3 | –
3 | COc1cc2ncnc(Nc3cccc(NC(=O)Nc4ccc(Cl)c(C(F)(F)F)c4)c3)c2cc1OCCCN1CCOCC1 | 195 nM | 82 nM | 213 nM | 75 nM | – | –

Now those with a lower IC50 [1], led by results:

Row | IC50 [1] | IC50 [2] | IC50 [3] | IC50 [4] | Ratio IC50 [5] | Ratio IC50 [6] | SMILES
4 | 112 nM | 188 nM | 91 nM | 53 nM | – | – | CCN(CCO)CCCOc1ccc2c(Nc3cccc(NC(=O)Nc4ccc(Cl)c(C(F)(F)F)c4)c3)ncnc2c1
5 | 101 nM | 99 nM | 75 nM | 58 nM | – | – | O=C(Nc1cccc(Nc2ncnc3cc(OCCCN4CCN(CCO)CC4)ccc23)c1)Nc1ccc(Cl)c(C(F)(F)F)c1
6 | 72 nM | 3320 nM | 2170 nM | 42 nM | – | – | O=C(Nc1cccc(Nc2ncnc3cc(OCCCN4CCOCC4)ccc23)c1)Nc1ccc(F)c(Cl)c1
7 | 31 nM | > 10000 nM | > 10000 nM | 55 nM | – | 4 | COc1cc2ncnc(Nc3cccc(NC(=O)Nc4ccc(F)c(Cl)c4)c3)c2cc1OCCCN1CCOCC1
8 | 22 nM | 165 nM | 95 nM | 13 nM | – | 5 | CCN(CCO)CCCOc1ccc2c(Nc3cccc(NC(=O)Nc4ccc(F)c(Cl)c4)c3)ncnc2c1
